Test results as given in BindingDB's records for doi:10.1021/acs.jmedchem.5b00801 (Duquesne University, 2015).

How the values were obtained:
[1] = Binding affinity to human FRalpha expressed in Chinese hamster RT16 cells assessed as cell growth inhibition after 96 hrs by CellTiter-Blue assay
[2] = Binding affinity to human FRbeta expressed in Chinese hamster D4 cells assessed as cell growth inhibition after 96 hrs by CellTiter-Blue assay in presence of 200 nM folic acid
[3] = Binding affinity to human FRalpha expressed in Chinese hamster RT16 cells assessed as cell growth inhibition after 96 hrs by CellTiter-Blue assay in presence of 200 nM folic acid
[4] = Binding affinity to human RFC expressed in Chinese hamster PC43-10 cells assessed as cell growth inhibition after 96 hrs by CellTiter-Blue assay
[5] = Binding affinity to human PCFT expressed in Chinese hamster R2/PCFT4 cells assessed as cell growth inhibition after 96 hrs by CellTiter-Blue assay
[6] = Binding affinity to human FRbeta expressed in Chinese hamster D4 cells assessed as cell growth inhibition after 96 hrs by CellTiter-Blue assay

Row | Compound | IC50 [1] [nM] | IC50 [2] [nM] | IC50 [3] [nM] | IC50 [4] [nM] | IC50 [5] [nM] | IC50 [6] [nM]
1 | Nc1nc2[nH]c(CCCc3cc(C(=O)N[C@@H](CCC(=O)O)C(=O)O)cs3)cc2c(=O)[nH]1 | 0.61 | 654 | 506 | 189 | 6.5 | 0.1
2 | Nc1nc(N)c2c(CCCc3cc(C(=O)N[C@@H](CCC(=O)O)C(=O)O)cs3)coc2n1 | – | > 1000 | – | > 1000 | > 1000 | 54
